Assay results: paper doi:10.1101/2021.01.04.425289v1 (biorxiv, 2021)
Starred links: 1 amine or outer side, 2 acyl side, 3 side chain; linkers in the order of their positions; H or OH if unused. Residues, ends and D or L forms follow the SMILES beside them. CO = O=C([*:1])[*:2]

Molecular target: Furin (Homo sapiens, UniProt P09958)
Test: biochemical

Chain of Furin (P09958 whole entry): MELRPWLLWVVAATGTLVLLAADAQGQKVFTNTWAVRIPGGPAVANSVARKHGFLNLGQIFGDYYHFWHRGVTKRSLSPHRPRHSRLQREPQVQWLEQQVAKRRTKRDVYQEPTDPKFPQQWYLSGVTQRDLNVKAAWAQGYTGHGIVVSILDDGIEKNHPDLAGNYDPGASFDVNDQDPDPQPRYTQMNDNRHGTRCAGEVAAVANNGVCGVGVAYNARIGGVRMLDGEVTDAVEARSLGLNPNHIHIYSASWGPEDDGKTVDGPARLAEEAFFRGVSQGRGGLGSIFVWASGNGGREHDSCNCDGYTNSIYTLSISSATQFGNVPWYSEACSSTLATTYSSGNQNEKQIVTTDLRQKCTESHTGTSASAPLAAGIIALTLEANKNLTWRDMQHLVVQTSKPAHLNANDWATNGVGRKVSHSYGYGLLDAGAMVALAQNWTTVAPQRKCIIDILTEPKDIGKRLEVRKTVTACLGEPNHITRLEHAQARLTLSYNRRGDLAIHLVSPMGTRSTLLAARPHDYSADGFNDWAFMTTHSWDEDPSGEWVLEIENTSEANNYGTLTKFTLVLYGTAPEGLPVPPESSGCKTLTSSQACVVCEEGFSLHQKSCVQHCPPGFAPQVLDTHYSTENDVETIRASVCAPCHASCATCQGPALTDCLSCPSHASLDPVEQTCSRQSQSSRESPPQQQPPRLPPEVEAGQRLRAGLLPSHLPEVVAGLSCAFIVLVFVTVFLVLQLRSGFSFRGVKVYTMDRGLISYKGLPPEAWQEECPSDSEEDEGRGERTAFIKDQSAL

| Structure (SMILES) | IC50 [µM] |
| --- | --- |
| CC(C)[C@H](NC(=O)[C@H](CCCNC(=N)N)NC(=O)N[C@@H](Cc1ccccc1)C(=O)O)C(=O)N[C@H](C=O)CCCNC(=N)N [Antipain] ({Phe-CO}-Arg-Val-Arg-aldehyde) | > 10 |
| CN(C)C(=O)COC(=O)Cc1ccc(OC(=O)c2ccc(NC(=N)N)cc2)cc1 [Camostat] | > 10 |
